The text below walks through data of patent publication US7671077B2, “Neuroprotective small organic molecules, compositions and uses related thereto” (priority 2004, dated 2010).

Each structure is given as a SMILES string. pEC50: −log10 of the molar value.

The subject of one data set is midbrain dopaminergic neurons. Put plainly: Dopamine (DA) uptake assay in primary midbrain cultures. Conditions: 20 μM. The format is cell-based, rat. On the procedure:
Primary midbrain cultures were prepared from rat embryo ventral mesencephalon as described previously by Lin et al (1994). In brief, rostral mesencephalic tegmentum of embryonic day 16 rat embryos was collected in DMEM/F12 (Hyclone SH30023.01) containing 2 mM glutamine on ice, The tissue was treated with 0.1% trypsin in Hanks' balanced salt solution (HBSS, Gibco 14175-095) for 15 min at 37° C. and dissociated mechanically by mild trituration with a fire-polished glass pipet in growth medium plus 2% heat-inactivated fetal bovine serum (FBS). The growth medium consisted of equal volumes of Dulbecco's minimal essential medium DMEM (Gibco 12100-046) and HAM's F12 nutrient mixture (Gibco 21700-075) supplemented with 33 mM glucose, 13 mM sodium bicarbonate, 5 mM HEPES, 2 mM glutamine, 25 μg/ml insulin, 100 μg/ml transferrin, 60 μM putrescine, 20 nM progesterone, 30 nM sodium selenite, 5 U/ml penicillin G and 5 μg/ml streptomycin. 24-well tissue culture plate was coated by adding 15 μg/ml poly-1-ornithine hydrobromide solution at 0.5 ml/well, incubated at room temperature for 1 hr. The coating solution was removed and the well washed 3 times with distilled water and one wash with HBSS. The dissociated cells were plated onto polyornithine-coated wells at 250,000-350,000 trypan blue-excluding viable cells per well in 500 μl of above medium containing 1% FBS. After 3 h when most of the cells had adhered to the bottom of the well, the medium was replaced with 500 μl of fresh medium without FBS. A serial dilution of the sample to be assayed for trophic activity was added to each well in duplicate at the time of medium change or within 24 h thereafter. Unless otherwise stated, cultures were incubated at 37° C. without any further medium change up to 7 days. Primary hindbrain cultures were prepared as described for the midbrain cultures except that the rostral raphe region (instead of the rostral mesencephalon) was dissected and trypsinized for 20 (instead of 15) min.
[^3H]DA uptake was measured in cultures at day 7, and all the solutions were maintained at 37° C. The growth medium was removed, and the cultures were rinsed twice with 0.25 ml of uptake buffer, which consists of HBSS (Gibco 11201-092) supplemented with 28 mM glucose, 15 mM HEPES, 1 mM ascorbic acid (an antioxidant), and […] pargyline (a monoamine oxidase inhibitor). The cultures were then incubated with 0.25 ml of fresh uptake buffer containing 50 nM [^3H]DA (NEN/DuPont) for 20 min at 37° C. [^3H]DA uptake was stopped by removing the incubation mixture, and cells were then washed twice with 0.5 ml of the uptake buffer at room temperature. To release [^3H]DA from the cells, the cultures were lysed with 0.2 ml of 0.1 N NaOH for 1 h at room temperature, the lysate was then added to 1 ml of Microscint-20 (Packard 6013621), and counted for radioactivity in a microplate scintillation counter (Packard TopCount, NXT). Background values were obtained by adding to the uptake buffer 0.5 mM GBR-12909, a specific inhibitor of the high-affinity uptake pump of the dopaminergic neurons, and were usually <5% of the ^3H uptake in untreated control cultures. Forskolin (Fk, 25 μM) was employed as a positive control.
Regarding `O=C(Nc1ccc(S(=O)(=O)Nc2nc[nH]n2)cc1)c1ccc2ccccc2c1` [Y′], the “cytotoxicity in midbrain culture” value was “no cytotoxicity”.

The same data set, now with this note: FIG. 36.
Regarding `Cc1ccc(/C=C/C(=O)Nc2ccc(S(=O)(=O)Nc3cccs3)cc2)c(C)c1` [Compound Z′], the “stimulation maximum of DA uptake compared to compound A” value is recorded as “higher stimulation maximum”.

Still in this data set, the particulars now being: Rattus norvegicus, Neuron, compound concentration 0.3 μM; midbrain culture; read-out: DA uptake % of control.
With `O=C(Nc1ccc(S(=O)(=O)Nc2nccs2)cc1)c1sc2cc(Cl)ccc2c1Cl` [F′], the activity at 0.3 µM is 180%.

Still in this data set, the particulars now being: Rattus norvegicus, Neuron, compound concentration 0.6 μM; midbrain culture; read-out: DA uptake % of control.
As for `O=C(/C=C/c1ccccc1)Nc1ccc(S(=O)(=O)N2CCCCC2)cc1` [K′], the activity at 0.6 µM came out at 125%.

For the compound `CC(C)(C)c1cc(Br)ccc1OCC(=O)Nc1ccc(S(=O)(=O)Nc2nccs2)cc1` [U′], the activity at 0.6 µM was found to be 140%. The same measure, in the same setting: the result for `O=C(Nc1ccc(S(=O)(=O)Nc2nccs2)cc1)c1sc2cc(Cl)ccc2c1Cl` [T′] reads 140%; that for `O=C(Nc1ccc(S(=O)(=O)Nc2nccs2)cc1)c1sc2ccccc2c1Cl` [D′], 170%. Still for that read-out and setting: the result for `O=C(/C=C/c1cccc(C(F)(F)F)c1Cl)Nc1ccc(S(=O)(=O)Nc2nccs2)cc1` [C′′′] reads 180%; that for `O=C(/C=C/c1ccccc1Cl)Nc1ccc(S(=O)(=O)N2CCCCC2)cc1` [M′], 145%.

The same data set, now with this note: Rattus norvegicus, Neuron, compound concentration 0.7 μM; midbrain culture; read-out: DA uptake % of control.
For `O=C(/C=C/c1cccc(Cl)c1)Nc1ccc(S(=O)(=O)Nc2nccs2)cc1` [M], the activity at 0.7 µM amounted to 120%. Turning to `O=C(/C=C/c1cccc(Cl)c1)Nc1ccc(S(=O)(=O)Nc2cnc3ccccc3n2)cc1` [K], the activity at 0.7 µM came to 190%.

Still in this data set, the particulars now being: Rattus norvegicus, Neuron, compound concentration 1.25 μM; midbrain culture; read-out: DA uptake % of control.
With `O=C(/C=C/c1cc(F)ccc1C(F)(F)F)Nc1ccc(S(=O)(=O)Nc2nccs2)cc1` [L″], the activity at 1.25 µM was 375%. Same read-out and setting: as for `Cc1ccc(/C=C/C(=O)Nc2ccc(S(=O)(=O)Nc3cccs3)cc2)c(C)c1` [Compound Z′], the figure is 365%. Same read-out and setting: the result for `CCCOc1ccc(/C=C/C(=O)Nc2ccc(S(=O)(=O)Nc3nccs3)cc2)cc1OC` [P′] reads 210%; that for `Cc1ccccc1/C=C/C(=O)Nc1ccc(S(=O)(=O)Nc2nc[nH]n2)cc1` [X′′′′], 260%. For `O=C(Nc1ccc(S(=O)(=O)Nc2nc[nH]n2)cc1)c1ccc2ccccc2c1` [Y′], the activity at 1.25 µM turned out to be 290%.

As for `O=C(/C=C/c1cccc(OC(F)(F)F)c1)Nc1ccc(S(=O)(=O)Nc2nccs2)cc1` [V′′′′], the activity at 1.25 µM came out at 200%.

`O=C(/C=C/c1c(Cl)cccc1Cl)Nc1ccc(S(=O)(=O)Nc2nccs2)cc1` [U′′′′]: the activity at 1.25 µM is 290%. Still for that read-out and setting: as for `COc1cccc(/C=C/C(=O)Nc2ccc(S(=O)(=O)Nc3nnc[nH]3)cc2)c1` [R′′′], the figure is 150%; as for `O=C(/C=C/c1c(Cl)cccc1Cl)Nc1ccc(S(=O)(=O)Nc2nc[nH]n2)cc1` [H″], 260%; as for `O=C(/C=C/c1ccc(O)cc1)Nc1ccc(S(=O)(=O)Nc2ccccn2)cc1` [L′′′], 130%. With `O=C(/C=C/c1ccc(Cl)cc1)Nc1ccc(S(=O)(=O)Nc2ncccn2)cc1` [A′], the activity at 1.25 µM worked out at 140%.

Staying with this data set, now noted: Rattus norvegicus, Neuron, compound concentration 2.5 μM; midbrain culture; read-out: DA uptake % of control.
With `Cc1ccc(/C=C/C(=O)Nc2ccc(S(=O)(=O)Nc3ccccn3)cc2)cc1` [C′′′′], the activity at 2.5 µM was 160%. Same read-out and setting: as for `Cc1cccc(/C=C/C(=O)Nc2ccc(S(=O)(=O)Nc3nccs3)cc2)c1` [G′′′′], the figure is 220%; as for `O=C(/C=C/c1ccccc1)Nc1ccc(S(=O)(=O)N2CCCCC2)cc1` [K′], 320%.

As for `O=C(Nc1ccc(S(=O)(=O)Nc2cccs2)cc1)c1ccc2ccccc2c1` [C″], the activity at 2.5 µM turned out to be 200%. Regarding `O=C(Nc1ccc(S(=O)(=O)Nc2nccs2)cc1)c1cc2ccccc2o1` [E′′′′], the activity at 2.5 µM stood at 260%. For the compound `COc1ccc(/C=C/C(=O)Nc2ccc(S(=O)(=O)Nc3cc(C)nc(C)n3)cc2)cc1Br` [Q], the activity at 2.5 µM was determined as 140%. On the same count and under the same terms, as for `Cn1c(C(=O)Nc2ccc(S(=O)(=O)Nc3nccs3)cc2)cc2ccccc21` [D′′′′], the figure is 190%; as for `O=C(/C=C/c1ccccc1Br)Nc1ccc(S(=O)(=O)Nc2ccccn2)cc1` [U″], 210%. Same read-out and setting: as for `Cc1ccccc1/C=C/C(=O)Nc1ccc(S(=O)(=O)Nc2nc[nH]n2)cc1` [D′′′′′], the figure is 260%; as for `COc1ccccc1/C=C\C(=O)Nc1ccc(S(=O)(=O)Nc2nccs2)cc1` [L′′′′], 200%. On the same count and under the same terms, the result for `O=C(/C=C/c1cccc(O)c1)Nc1ccc(S(=O)(=O)Nc2nncs2)cc1` [V′′′] reads 160%.

For `O=C(/C=C/c1ccc(Br)cc1)Nc1ccc(S(=O)(=O)Nc2nccs2)cc1` [O″], the activity at 2.5 µM was found to be 290%. On the same count and under the same terms, the result for `CCOc1ccccc1/C=C/C(=O)Nc1ccc(S(=O)(=O)Nc2nccs2)cc1` [R′′′′] reads 170%.

For the compound `O=C(/C=C/c1ccccc1F)Nc1ccc(S(=O)(=O)Nc2nccs2)cc1` [A′′′′], the activity at 2.5 µM is 170%.

The same data set, now with this note: Rattus norvegicus, Neuron, compound concentration 5 μM; midbrain culture; read-out: DA uptake % of control.
For the compound `CCc1nnc(NS(=O)(=O)c2ccc(NC(=O)/C=C/c3ccc(F)cc3)cc2)s1` [W], the activity at 5 µM amounted to 180%. As for `Cc1noc(NS(=O)(=O)c2ccc(NC(=O)/C=C/c3ccc(Cl)cc3)cc2)c1C` [J′], the activity at 5 µM was determined as 180%. The same measure, in the same setting: as for `CCc1ccccc1/C=C\C(=O)Nc1ccc(S(=O)(=O)Nc2nc[nH]n2)cc1` [R″], the figure is 290%; as for `CCOc1cccc(/C=C/C(=O)Nc2ccc(S(=O)(=O)Nc3nccs3)cc2)c1` [S′′′′], 170%. Same read-out and setting: the result for `O=C(/C=C/c1cccc(O)c1)Nc1ccc(S(=O)(=O)Nc2ccccn2)cc1` [M′′′] reads 170%; that for `COc1ccccc1/C=C/C(=O)Nc1ccc(S(=O)(=O)Nc2ccccn2)cc1` [P″], 200%; that for `O=C(/C=C/c1ccc([N+](=O)[O-])cc1)Nc1ccc(S(=O)(=O)Nc2nccs2)cc1` [T′′′′], 180%.

Still in this data set, the particulars now being: Rattus norvegicus, Neuron, compound concentration 10 μM; midbrain culture; read-out: DA uptake % of control.
In the case of `Cc1cccc(C(=O)Nc2ccc(S(=O)(=O)Nc3nccs3)cc2)c1` [T], the activity at 10 µM stood at 140%.

Consider `COc1ccc(/C=C/C(=O)Nc2ccc(S(=O)(=O)Nc3nnc[nH]3)cc2)cc1` [S′′′], for which the activity at 10 µM came out at 190%. The same measure, in the same setting: the result for `CCc1nnc(NS(=O)(=O)c2ccc(NC(=O)c3ccccc3F)cc2)s1` [Compound Z] reads 150%.

Turning to `CCOc1ccc(C(=O)Nc2ccc(S(=O)(=O)Nc3nccs3)cc2)cc1` [L], the activity at 10 µM turned out to be 160%. Turning to `Cc1nc(NS(=O)(=O)c2ccc(NC(=O)/C=C/c3ccccc3Cl)cc2)sc1C(=O)O` [Y′′′], the activity at 10 µM is 160%. As to `O=C(/C=C/c1ccccc1O)Nc1ccc(S(=O)(=O)Nc2nccs2)cc1` [P′′′], the activity at 10 µM was 150%. The same measure, in the same setting: the result for `COc1ccc(C(=O)Nc2ccc([S+]([O-])Nc3nccs3)cc2)cc1` (stereo not drawn) [H′] reads 160%.

Take `O=C(/C=C/c1ccccc1Cl)Nc1ccc(S(=O)(=O)Nc2nncs2)cc1` [U′′′]: the activity at 10 µM was determined as 180%.

Staying with this data set, now noted: Rattus norvegicus, Neuron, compound concentration 20 μM; midbrain culture; read-out: DA uptake % of control.
With `O=C(Nc1ccc(S(=O)(=O)Nc2nccs2)cc1)c1ccc(F)c(F)c1` [F], the activity at 20 µM was found to be 180%. On the same count and under the same terms, the result for `COc1ccc(/C=C/C(=O)Nc2ccc(S(=O)(=O)Nc3ccccn3)cc2)cc1` [H′′′] reads 180%. The same measure, in the same setting: the result for `Cc1ccc(C(=O)Nc2ccc(S(=O)(=O)Nc3nccs3)cc2)cc1` [R] reads 140%. The same measure, in the same setting: the result for `Cc1cc(NS(=O)(=O)c2ccc(NC(=O)/C=C/c3ccccc3)cc2)no1` [G′] reads 140%.

Staying with this data set, now noted: Rattus norvegicus, Neuron, compound concentration 40 μM; midbrain culture; read-out: DA uptake % of control.
On to `O=C(Nc1ccc(S(=O)(=O)Nc2nccs2)cc1)c1cncc(Br)c1` [V′], for which the activity at 40 µM came out at 130%. Turning to `O=C(/C=C/c1ccco1)Nc1ccc(S(=O)(=O)Nc2ccco2)cc1` [G], the activity at 40 µM was 190%.

Still in this data set, the particulars now being: Rattus norvegicus, Neuron; midbrain culture, FIG. 36; read-out: half-maximal effective concentration (EC50) for DA uptake stimulation.
Take `Cc1ccc(/C=C/C(=O)Nc2ccc(S(=O)(=O)Nc3cccs3)cc2)c(C)c1` [Compound Z′]: the pEC50 was about 6.70. With `O=C(Nc1ccc(S(=O)(=O)Nc2nc[nH]n2)cc1)c1ccc2ccccc2c1` [Y′], the pEC50 is about 6.70.

The data set is the same for the next values; noted with them: compound concentration 2.5 μM; midbrain culture.
Compound `O=C(/C=C/c1ccccc1Br)Nc1ccc(S(=O)(=O)Nc2nccs2)cc1` [J′′′′] showed a DA uptake % of control of 210%.
